Target: T1, USP28 (USP28-5(1-1077)-TEV-6*His; LifeSensors) (Homo sapiens, UniProt Q96RU2)
T1 construct: construct USP28 (USP28-5(1-1077)-TEV-6*His; LifeSensors); TEV cleavage site (C); 6xHis (C); purchased LifeSensors
T1 sequence (Q96RU2 1-1077): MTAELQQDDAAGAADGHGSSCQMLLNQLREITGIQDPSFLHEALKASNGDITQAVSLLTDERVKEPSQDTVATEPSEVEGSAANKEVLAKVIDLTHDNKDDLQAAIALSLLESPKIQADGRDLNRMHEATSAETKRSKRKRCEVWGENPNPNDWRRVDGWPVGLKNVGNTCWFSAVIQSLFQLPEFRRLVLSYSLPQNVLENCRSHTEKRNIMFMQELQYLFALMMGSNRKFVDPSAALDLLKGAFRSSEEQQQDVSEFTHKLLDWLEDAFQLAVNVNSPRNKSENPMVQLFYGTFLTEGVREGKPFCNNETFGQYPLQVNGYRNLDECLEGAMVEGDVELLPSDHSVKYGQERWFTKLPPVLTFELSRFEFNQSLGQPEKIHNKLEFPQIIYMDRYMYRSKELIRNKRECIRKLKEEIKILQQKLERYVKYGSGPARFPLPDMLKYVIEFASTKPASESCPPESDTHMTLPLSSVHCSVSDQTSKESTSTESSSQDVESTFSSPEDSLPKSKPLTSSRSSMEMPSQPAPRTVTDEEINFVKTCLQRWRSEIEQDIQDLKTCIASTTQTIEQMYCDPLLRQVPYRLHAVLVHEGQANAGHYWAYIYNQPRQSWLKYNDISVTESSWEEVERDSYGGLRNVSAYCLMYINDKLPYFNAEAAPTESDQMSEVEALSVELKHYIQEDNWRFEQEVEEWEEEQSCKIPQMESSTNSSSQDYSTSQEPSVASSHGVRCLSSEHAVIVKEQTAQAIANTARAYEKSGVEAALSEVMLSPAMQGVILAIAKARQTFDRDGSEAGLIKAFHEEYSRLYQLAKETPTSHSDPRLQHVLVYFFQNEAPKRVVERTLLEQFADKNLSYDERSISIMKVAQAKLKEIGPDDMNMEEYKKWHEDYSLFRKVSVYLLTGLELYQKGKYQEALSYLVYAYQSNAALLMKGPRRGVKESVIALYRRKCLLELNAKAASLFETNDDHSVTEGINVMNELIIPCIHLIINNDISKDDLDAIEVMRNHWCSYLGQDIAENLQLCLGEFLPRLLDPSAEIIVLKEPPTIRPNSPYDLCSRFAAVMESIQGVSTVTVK
Test: Ubiquitin-Rhodamine 110 Assay for USP28 Activity, Example A-1(b)
Type: biochemical
Conditions: Ub-Rh110 assay, Example A-1(b)
How it was run: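 Single-point screening used 10 μM compound with 90 min room-temperature incubation; follow-up dose-responses (25 μM top, 3-fold) used 75 pM USP28 1-1077 construct, 30 min compound preincubation, 25 nM Ub-Rh110, 20 min reaction, citric acid quench. Rh110 fluorescence normalised to no-enzyme and DMSO controls; IC50 from 4-parameter logistic fit.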

SMILES | USP28 A-1(b) IC50 range
Cc1ccc2c(N)c(C(=O)N[C@H]3COc4cc(N5CCN[C@@H](C)[C@H]5C)ccc4C3)sc2n1 (single isomer, unassigned) [Example 1-7] | ++++ (0.001-0.05 μM)

Same assay, conditions: Ubiquitin-Rhodamine 110 assay, format Example A-1(b)

SMILES | USP28 A-1(b) IC50 range
Cc1nc2sc(C(=O)N[C@H]3CCc4cc(N5CCNCC5)ccc4C3)c(N)c2s1 (single isomer, unassigned) [Example 11-33] | + (>2 μM)
Cc1ccc2c(N)c(C(=O)N[C@@H]3CCc4cc(N5CC6CCC(C5)N6)c(C#N)cc4C3)sc2n1 (single isomer, unassigned) [Example 14-3] | ++ (0.2-2 μM)
Cc1ccc2c(N)c(C(=O)N[C@H]3CCc4cc(N5CC6CCC(C5)N6)c(C#N)cc4C3)sc2n1 (single isomer, unassigned) [Example 14-4] | ++++ (0.001-0.05 μM)
Cc1ccc2c(N)c(C(=O)N[C@H]3CCc4c(ccc(N5CC6CCC(C5)N6)c4C#N)C3)sc2n1 (single isomer, unassigned) [Example 14-2] | ++ (0.2-2 μM)
Cc1nc2sc(C(=O)N[C@@H]3CCc4cc(N5CC6CCC(C5)N6)ccc4C3)c(N)c2s1 (single isomer, unassigned) [Example 12-2] | ++ (0.2-2 μM)
Cc1ccc2c(N)c(C(=O)N[C@@H]3CCc4c(ccc(N5CC6CCC(C5)N6)c4C#N)C3)sc2n1 (single isomer, unassigned) [Example 14-1] | ++++ (0.001-0.05 μM)
Cc1cnc2c(N)c(C(=O)N[C@H]3CCc4cc(N5CC6CCC(C5)N6)c(C#N)cc4C3)sc2n1 (single isomer, unassigned) [Example 14-8] | ++++ (0.001-0.05 μM)
Cc1cnc2c(N)c(C(=O)N[C@H]3CCc4c(ccc(N5CC6CCC(C5)N6)c4C#N)C3)sc2n1 (single isomer, unassigned) [Example 14-6] | + (>2 μM)
Cc1cnc2c(N)c(C(=O)N[C@@H]3CCc4cc(N5CC6CCC(C5)N6)c(C#N)cc4C3)sc2n1 (single isomer, unassigned) [Example 14-7] | ++ (0.2-2 μM)
Cc1cnc2c(N)c(C(=O)N[C@@H]3CCc4c(ccc(N5CC6CCC(C5)N6)c4C#N)C3)sc2n1 (single isomer, unassigned) [Example 14-5] | +++ (0.05-0.2 μM)

— patent publication US11524966B1 (Valo Early Discovery, Inc., priority 2017, dated 2022)
